The subject of series [1] is CUG foci in primary DM1 patient myoblasts. As to the kind of experiment: Single-cut screening: FISH staining of CUG RNA foci. The format is cell-based, human. The conditions noted are these: single sgRNA, primary DM1 patient myoblasts; for % of CUG foci free nuclei (DNA-PKi): DNA-PKi treated. An outline of the steps: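 CD56-purified primary DM1 patient myoblasts nucleofected with SluCas9:sgRNA RNP (30:90 pmol, single-cut), then DMSO or 3 μM DNA-PK inhibitor for 48 h. At 72 h post-nucleofection, cells fixed and stained for CUG foci with Cy3-PNA(CAG)5 probe (1 ng/μL, 80 °C), co-stained for MBNL1 and Hoechst, imaged by high-content confocal microscopy.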

The test system of series [2] is 3′ UTR of the human DMPK gene. The experiment in a line: Single-cut screening: indel editing efficiency by Sanger sequencing and ICE analysis in primary DM1 patient myoblasts. The format is cell-based. The conditions noted are these: single SluCas9 sgRNA RNP in primary DM1 patient myoblasts; Sanger sequencing and ICE analysis; vehicle-treated samples. Put shortly:
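Indels were estimated by ICE from Sanger chromatograms of PCR amplicons covering the DMPK 3′ UTR wild-type allele, using only vehicle-treated samples; sgRNAs with R2<0.9 are flagged. Samples came from primary DM1 patient myoblasts (2 × 10^5) harvested 72 h after nucleofection with 30 pmol SluCas9 and 90 pmol single sgRNA RNP.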

Series [3] deals with CAG foci in primary DM1 patient myoblasts. As to the kind of experiment: Single-cut screening: CAG foci staining. The format is cell-based, human. The conditions noted are these: single sgRNA; for % of CAG foci positive nuclei (DNA-PKi): DNA-PKi treated. Put shortly: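 Primary DM1 patient myoblasts were PFA-fixed and hybridized with […] (1 ng/μL, 15 min at 80° C) in 30% formamide/2×SSC, followed by anti-MBNL1 immunostaining and Hoechst counterstain. CAG RNA foci were quantified by high-content confocal imaging after single-cut SuCas9 sgRNA editing.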

With “CGAGAGCAGCGCAAGTGAGGAG (guide RNA; chemistry not fully specified) [SluD49]”, in series [1], the “% of CUG foci free nuclei (DNA-PKi)” value is listed as 37.77% and the “% of CUG foci free nuclei (Vehicle)” value was 12.39%. In series [2], this substance registered an Indel efficiency of 41%. In addition, in series [3], the “% of CAG foci positive nuclei (DNA-PKi)” value was found to be 2.3% and the “% of CAG foci positive nuclei (Vehicle)” value is given as 2.83%.
For the substance “AAAAGCAAATTTCCCGAGTAAG (guide RNA; chemistry not fully specified) [SluD38]”, in series [1], the “% of CUG foci free nuclei (DNA-PKi)” value was 15.53% and the “% of CUG foci free nuclei (Vehicle)” value is 6.59%. For the same substance, the Indel efficiency in series [2] is 1%. Besides, in series [3], the “% of CAG foci positive nuclei (DNA-PKi)” value came out at 1.96% and the “% of CAG foci positive nuclei (Vehicle)” value is reported as 0.93%.
The corresponding values for “GCTAGGGGGCGGGCCCGGATCA (guide RNA; chemistry not fully specified) [SluU34]” are 63.08%, 19.95%, 53%, 1.03% and 0.78%.
With “GACGCCCTGCTCTGGGGAGCGT (guide RNA; chemistry not fully specified) [SluD33]”, in series [1], the “% of CUG foci free nuclei (DNA-PKi)” value came out at 33.92% and the “% of CUG foci free nuclei (Vehicle)” value worked out at 12.72%. For the same substance, in series [2], the Indel efficiency is recorded as 74%. Moreover, in series [3], the “% of CAG foci positive nuclei (DNA-PKi)” value is 1.76% and the “% of CAG foci positive nuclei (Vehicle)” value amounted to 4.78%.
In the case of “GCCTGTCAGCGAGTCGGAGGAC (guide RNA; chemistry not fully specified) [SluD66]”, in series [1], the “% of CUG foci free nuclei (DNA-PKi)” value was 30.48% and the “% of CUG foci free nuclei (Vehicle)” value amounted to 13.03%. The substance also showed an Indel efficiency in series [2] of 28%. Also, in series [3], the “% of CAG foci positive nuclei (DNA-PKi)” value was found to be 1.94% and the “% of CAG foci positive nuclei (Vehicle)” value is on record as 1.41%.
For the substance “ggccgggtccgcggccggcgaa (GGCCGGGTCCGCGGCCGGCGAA; guide RNA; chemistry not fully specified) [SluU56]”, in series [1], the “% of CUG foci free nuclei (DNA-PKi)” value stood at 42.84% and the “% of CUG foci free nuclei (Vehicle)” value came to 16.76%. In addition, the Indel efficiency in series [2] came to 27%. Further, in series [3], the “% of CAG foci positive nuclei (DNA-PKi)” value turned out to be 1.83% and the “% of CAG foci positive nuclei (Vehicle)” value is 0.94%.
In the case of “gggccgggtccgcggccggcga (GGGCCGGGTCCGCGGCCGGCGA; guide RNA; chemistry not fully specified) [SluU55]”, in series [1], the “% of CUG foci free nuclei (DNA-PKi)” value turned out to be 57.91% and the “% of CUG foci free nuclei (Vehicle)” value is 27.94%. This substance came in with an Indel efficiency in series [2] of 67%. In addition, in series [3], the “% of CAG foci positive nuclei (DNA-PKi)” value was 1.34% and the “% of CAG foci positive nuclei (Vehicle)” value worked out at 0.99%.
For the substance “AGCGGTTGTGAACTGGCAGGCG (guide RNA; chemistry not fully specified) [SluU19]”, in series [1], the “% of CUG foci free nuclei (DNA-PKi)” value was found to be 69.93% and the “% of CUG foci free nuclei (Vehicle)” value came to 19.3%. In series [2], this substance had an Indel efficiency of 48%. Further, in series [3], the “% of CAG foci positive nuclei (DNA-PKi)” value was determined as 0.83% and the “% of CAG foci positive nuclei (Vehicle)” value was found to be 1.54%.
As to “GGGGTCTCAGTGCATCCAAAAC (guide RNA; chemistry not fully specified) [SluD78]”, in series [1], the “% of CUG foci free nuclei (DNA-PKi)” value stood at 27% and the “% of CUG foci free nuclei (Vehicle)” value was 12.61%. For the same substance, the Indel efficiency in series [2] came out at 4%. Also, in series [3], the “% of CAG foci positive nuclei (DNA-PKi)” value turned out to be 1.36% and the “% of CAG foci positive nuclei (Vehicle)” value stood at 2.31%.
In the case of “CTTTTATTCGCGAGGGTCGGGG (guide RNA; chemistry not fully specified) [SluD93]”, in series [1], the “% of CUG foci free nuclei (DNA-PKi)” value was found to be 26.14% and the “% of CUG foci free nuclei (Vehicle)” value is 11.34%. Besides, the Indel efficiency in series [2] is reported as 18%. For the same substance, in series [3], the “% of CAG foci positive nuclei (DNA-PKi)” value is 3.58% and the “% of CAG foci positive nuclei (Vehicle)” value is recorded as 1.63%.
With “GCCCGGATCACAGGACTGGAGC (guide RNA; chemistry not fully specified) [SluU30]”, in series [1], the “% of CUG foci free nuclei (DNA-PKi)” value is on record as 46.16% and the “% of CUG foci free nuclei (Vehicle)” value is 26.92%. The same substance displayed an Indel efficiency in series [2] of 48%. For the same substance, in series [3], the “% of CAG foci positive nuclei (DNA-PKi)” value was found to be 2.14% and the “% of CAG foci positive nuclei (Vehicle)” value turned out to be 0.67%.
Consider “ggcccctccctccccggccGCT (guide RNA; as printed in the source, key not given here) [SluU50]”, for which, in series [1], the “% of CUG foci free nuclei (DNA-PKi)” value is 48.15% and the “% of CUG foci free nuclei (Vehicle)” value is 11.21%. This substance came in with an Indel efficiency in series [2] of 22%. Moreover, in series [3], the “% of CAG foci positive nuclei (DNA-PKi)” value was found to be 1.59% and the “% of CAG foci positive nuclei (Vehicle)” value is 0.75%.
The matching figures for “gcccctccctccccggccGCTA (guide RNA; as printed in the source, key not given here) [SluU48]”: 24.81%, 20.76%, 11%, 1.56% and 1.1%.
The corresponding values for “CTCAGTGCATCCAAAACGTGGA (guide RNA; chemistry not fully specified) [SluD77]” are 28.94%, 14.94%, 17%, 3.13% and 1.8%.
The corresponding values for “GGGCCTTTTATTCGCGAGGGTC (guide RNA; chemistry not fully specified) [SluD95]” are 27.23%, 21.81%, 28%, 2.19% and 1.3%.
For “TAGCggccggggagggaggggc (guide RNA; as printed in the source, key not given here) [SluU49]”, in series [1], the “% of CUG foci free nuclei (DNA-PKi)” value is 38.7% and the “% of CUG foci free nuclei (Vehicle)” value was 7.53%. Besides, in series [2], the Indel efficiency is 0%. Also, in series [3], the “% of CAG foci positive nuclei (DNA-PKi)” value came out at 1.44% and the “% of CAG foci positive nuclei (Vehicle)” value was 1.03%.
In the case of “GGCCTTTTATTCGCGAGGGTCG (guide RNA; chemistry not fully specified) [SluD94]”, in series [1], the “% of CUG foci free nuclei (DNA-PKi)” value is 27.23% and the “% of CUG foci free nuclei (Vehicle)” value is 18.18%. Besides, in series [2], the Indel efficiency amounted to 30%. Also, in series [3], the “% of CAG foci positive nuclei (DNA-PKi)” value was 1.32% and the “% of CAG foci positive nuclei (Vehicle)” value was 1%.
With “CCCCCTAGCggccggggaggga (guide RNA; as printed in the source, key not given here) [SluU44]”, in series [1], the “% of CUG foci free nuclei (DNA-PKi)” value is on record as 47% and the “% of CUG foci free nuclei (Vehicle)” value is 12.6%. The substance further yielded an Indel efficiency in series [2] of 16%. Also, in series [3], the “% of CAG foci positive nuclei (DNA-PKi)” value came to 1.77% and the “% of CAG foci positive nuclei (Vehicle)” value was 0.7%.
Turning to “TTTTATTCGCGAGGGTCGGGGG (guide RNA; chemistry not fully specified) [SluD92]”, in series [1], the “% of CUG foci free nuclei (DNA-PKi)” value is on record as 24.03% and the “% of CUG foci free nuclei (Vehicle)” value was found to be 24.08%. Also, in series [2], the Indel efficiency amounted to 30%. Moreover, in series [3], the “% of CAG foci positive nuclei (DNA-PKi)” value is given as 3.02% and the “% of CAG foci positive nuclei (Vehicle)” value is 1.4%.
Take “CGAGGGTCGGGGGTGGGGGTCC (guide RNA; chemistry not fully specified) [SluD88]”: in series [1], the “% of CUG foci free nuclei (DNA-PKi)” value was 31.95% and the “% of CUG foci free nuclei (Vehicle)” value was 11.11%. In addition, the Indel efficiency in series [2] was found to be 7%. In series [3], the “% of CAG foci positive nuclei (DNA-PKi)” value stood at 2.42% and the “% of CAG foci positive nuclei (Vehicle)” value was found to be 1.4%.
The matching figures for “CAGCGCAAGTGAGGAGGGGGGC (guide RNA; chemistry not fully specified) [SluD46]”: 34.71%, 8.24%, 46%, 1.16% and 1.69%.
Consider “GTGGATGGGCAAACTGCAGGCC (guide RNA; chemistry not fully specified) [SluD13]”, for which, in series [1], the “% of CUG foci free nuclei (DNA-PKi)” value is given as 42.02% and the “% of CUG foci free nuclei (Vehicle)” value amounted to 15.93%. The Indel efficiency in series [2] is 55%. In series [3], the “% of CAG foci positive nuclei (DNA-PKi)” value came out at 2.77% and the “% of CAG foci positive nuclei (Vehicle)” value was 4.07%.
Consider “CTCCACGCACCCCCACCTATCG (guide RNA; chemistry not fully specified) [SluD22]”, for which, in series [1], the “% of CUG foci free nuclei (DNA-PKi)” value is 20.98% and the “% of CUG foci free nuclei (Vehicle)” value is 7.86%. The Indel efficiency in series [2] is reported as 21%. In series [3], the “% of CAG foci positive nuclei (DNA-PKi)” value is listed as 1.54% and the “% of CAG foci positive nuclei (Vehicle)” value is 0.76%.
